Assay results: US9139523B2, “5-HT2B receptor antagonists” (Janssen Pharmaceutica, NV, priority 2010, dated 2015)
Where two headings read alike, the source gives them in different places.

Experiments:
Assay type in all cases: in vivo
[1] = Monocrotaline-induced pulmonary arterial hypertension in the rat; conditions: male, Sprague Dawley, in vivo, po, rat, 2 hours post-dosing at day 21, read-out: mean plasma concentration
Protocol: (§1) Compound (−)-17 was tested in monocrotaline-induced pulmonary arterial hypertension in the rat (see e.g., Stenmark et al, 2009, Am J Physiol Lung Cell Mol Physiol 297, L1013-L1032). Measurements included: mean arterial blood pressure and right ventricular pressure in vivo, ratio of right ventricular weight to left ventricular weight plus septum as an index of right ventricular hypertrophy, pulmonary artery acceleration time, and histological assessement of muscularization of pulmonary arteries.
(§2) Monocrotaline was dissolved in 1 N HCl and then into distilled water, and pH was adjusted to 7.4 using NaOH. A single dose of 60 mg/kg monocrotaline was administered subcutaneously on day 0 to three groups of male Sprague Dawley rats. The test article Compound (−)-17 was dissolved in 20% hydroxypropyl-beta-cyclodextrin with NaOH, HCl and mannitol in pyrogen-free water and administered orally by gavage (10 ml/kg) once daily from day 1 for 21 days at 10 mg/kg and 50 mg/kg. […] Corresponding volumes of 20% hydroxypropyl-beta-cyclodextrin vehicle were administered orally according to the same protocol in a third group of animals.

[2] = test system: monocrotaline-induced pulmonary arterial hypertension; experiment: as above; conditions: for MAP / PAAT / RV/(LV + S) / RVP: Day 21, mean ± SD
Protocol: as §1, §2

[3] = test system: anesthetized guinea-pig; experiment: Cardiovascular effects in the anaesthetized guinea-pig
Protocol: (§3) Female guinea-pigs were anesthetized with sodium pentobarbital (66 mg/kg i.p.) followed by a continuous i.v. infusion of 6 mg/h of sodium pentobarbital and prepared for measurements of the surface electrocardiogram (ECG), heart rate and mean arterial blood pressure (see De Clerck et al, Fundam. Clin. Pharm.; 2002; 16: 125-140). Compound (−)-17 was dissolved in 20% hydroxypropyl-cyclodextrin with NaOH, HCl and mannitol in pyrogen-free water and administered intravenously (0.5 ml/kg) in increasing doses (0.16, 0.32, 0.64, 1.25, 2.5 and 5 mg/kg) over a period of 5 min at 15-min intervals. Plasma concentrations of Compound (−)-17 were measured at the end of each infusion. Corresponding volumes of vehicle were administered according to the same protocol in a second group of animals.

[4] = as above; conditions: female, plasma, iv, guinea pig, end of 5-min i.v. infusion; for concentration at 5 min: read-out: Median plasma level; for Cmax: read-out: Median plasma level (Cmax)
Protocol: as §3

[5] = 10 mg/kg p.o. once daily 21 days
[6] = 50 mg/kg p.o. once daily 21 days
[7] = rat, 10 mg and 50 mg p.o. once daily, three weeks
[8] = guinea pig i.v. 0.16 mg/kg @ 2′
[9] = guinea pig i.v. 0.16 mg/kg @ 5′
[10] = guinea pig i.v. 0.16 mg/kg @ 15′
[11] = guinea pig i.v. 0.32 mg/kg @ 2′
[12] = guinea pig i.v. 0.32 mg/kg @ 5′
[13] = guinea pig i.v. 0.32 mg/kg @ 15′
[14] = guinea pig i.v. 0.64 mg/kg @ 2′
[15] = guinea pig i.v. 0.64 mg/kg @ 5′
[16] = guinea pig i.v. 0.64 mg/kg @ 15′
[17] = guinea pig i.v. 1.25 mg/kg @ 2′
[18] = guinea pig i.v. 1.25 mg/kg @ 5′
[19] = guinea pig i.v. 1.25 mg/kg @ 15′
[20] = guinea pig i.v. 2.5 mg/kg @ 15′

COc1cc(N)c(Cl)cc1C(=O)NC1CCN(CCCOc2ccc(F)cc2)CC1(F)F (single isomer, unassigned) [Compound (−)-17, 4-amino-5-chloro-N-{3,3-difluoro-1-[3-(4-fluorophenoxy)-propyl]-piperidin-4-yl}-2-methoxybenzamide]
concentration at 2 h ([1]; 10 mg/kg, 10 mg p.o. once daily): ~80 ng/mL
concentration at 2 h ([1]; 50 mg/kg, 50 mg p.o. once daily): 1000 ng/mL
MAP [2, 5]: 93.7 ± 14.11 mmHg
PAAT [2, 5]: 15.91 ± 2.76 ms
RV/(LV + S) [2, 5]: 0.46 ± 0.08
RVP [2, 5]: 43.18 ± 7.38 mmHg
MAP [2, 6]: 97.58 ± 9.74 mmHg
PAAT [2, 6]: 15.42 ± 2.62 ms
RV/(LV + S) [2, 6]: 0.41 ± 0.08
RVP [2, 6]: 42.85 ± 11.55 mmHg
toxicity of three-week treatment ([2]; rat, 10 mg and 50 mg p.o. once daily): non-toxic
effect on mean arterial blood pressure (MAP) [2, 7]: no effect
effect on pulmonary artery acceleration time (PAAT) [2, 7]: increased
effect on right ventricular hypertrophy RV/(LV+S) [2, 7]: reduced
effect on right ventricular pressure (RVP) [2, 7]: reduced
monocrotaline-induced thickening of wall of small pulmonary arteries ([2]; rat, 10 mg p.o. three weeks (P<0.005)): reduced
monocrotaline-induced thickening of wall of small pulmonary arteries ([2]; rat, 50 mg/kg p.o. three weeks (P=0.0539)): reduced
HR, percentage change relative to baseline [3, 8]: −1%
MBP, percentage change relative to baseline [3, 8]: 4%
PQ, percentage change relative to baseline [3, 8]: 0%
QRS, percentage change relative to baseline [3, 8]: −2%
QT, percentage change relative to baseline [3, 8]: 0%
QTc B, percentage change relative to baseline [3, 8]: −1%
HR, percentage change relative to baseline [3, 9]: 0%
PQ, percentage change relative to baseline [3, 9]: 1%
QRS, percentage change relative to baseline [3, 9]: −2%
QT, percentage change relative to baseline [3, 9]: −1%
QTc B, percentage change relative to baseline [3, 9]: −1%
HR, percentage change relative to baseline [3, 10]: −2%
MBP, percentage change relative to baseline [3, 10]: −3%
PQ, percentage change relative to baseline [3, 10]: 4%
QRS, percentage change relative to baseline [3, 10]: 0%
QT, percentage change relative to baseline [3, 10]: 1%
QTc B, percentage change relative to baseline [3, 10]: 1%
HR, percentage change relative to baseline [3, 11]: −1%
MBP, percentage change relative to baseline [3, 11]: 6%
PQ, percentage change relative to baseline [3, 11]: 2%
QRS, percentage change relative to baseline [3, 11]: −2%
QT, percentage change relative to baseline [3, 11]: 0%
QTc B, percentage change relative to baseline [3, 11]: 1%
HR, percentage change relative to baseline [3, 12]: −4%
MBP, percentage change relative to baseline [3, 12]: 2%
PQ, percentage change relative to baseline [3, 12]: 4%
QRS, percentage change relative to baseline [3, 12]: 0%
QT, percentage change relative to baseline [3, 12]: 3%
QTc B, percentage change relative to baseline [3, 12]: 1%
HR, percentage change relative to baseline [3, 13]: −4%
MBP, percentage change relative to baseline [3, 13]: −3%
PQ, percentage change relative to baseline [3, 13]: 4%
QRS, percentage change relative to baseline [3, 13]: 0%
QT, percentage change relative to baseline [3, 13]: 4%
QTc B, percentage change relative to baseline [3, 13]: 3%
HR, percentage change relative to baseline [3, 14]: −5%
MBP, percentage change relative to baseline [3, 14]: 6%
PQ, percentage change relative to baseline [3, 14]: 5%
QRS, percentage change relative to baseline [3, 14]: 0%
QT, percentage change relative to baseline [3, 14]: 7%
QTc B, percentage change relative to baseline [3, 14]: 4%
HR, percentage change relative to baseline [3, 15]: −2%
MBP, percentage change relative to baseline [3, 15]: 13%
PQ, percentage change relative to baseline [3, 15]: 5%
QRS, percentage change relative to baseline [3, 15]: −5%
QT, percentage change relative to baseline [3, 15]: 5%
QTc B, percentage change relative to baseline [3, 15]: 2%
HR, percentage change relative to baseline [3, 16]: −5%
MBP, percentage change relative to baseline [3, 16]: −5%
PQ, percentage change relative to baseline [3, 16]: 4%
QRS, percentage change relative to baseline [3, 16]: −3%
QT, percentage change relative to baseline [3, 16]: 8%
QTc B, percentage change relative to baseline [3, 16]: 4%
HR, percentage change relative to baseline [3, 17]: −7%
MBP, percentage change relative to baseline [3, 17]: 4%
PQ, percentage change relative to baseline [3, 17]: 5%
QRS, percentage change relative to baseline [3, 17]: −2%
QT, percentage change relative to baseline [3, 17]: 8%
QTc B, percentage change relative to baseline [3, 17]: 4%
HR, percentage change relative to baseline [3, 18]: −7%
MBP, percentage change relative to baseline [3, 18]: 15%
PQ, percentage change relative to baseline [3, 18]: 6%
QRS, percentage change relative to baseline [3, 18]: 0%
QT, percentage change relative to baseline [3, 18]: 6%
QTc B, percentage change relative to baseline [3, 18]: 2%
HR, percentage change relative to baseline [3, 19]: 0%
MBP, percentage change relative to baseline [3, 19]: 9%
PQ, percentage change relative to baseline [3, 19]: 6%
QRS, percentage change relative to baseline [3, 19]: −3%
QT, percentage change relative to baseline [3, 19]: 2%
QTc B, percentage change relative to baseline [3, 19]: 3%
HR, percentage change relative to baseline ([3]; guinea pig i.v. 2.5 mg/kg @ 2′): −5%
PQ, percentage change relative to baseline ([3]; guinea pig i.v. 2.5 mg/kg @ 2′): 7%
QRS, percentage change relative to baseline ([3]; guinea pig i.v. 2.5 mg/kg @ 2′): −3%
QT, percentage change relative to baseline ([3]; guinea pig i.v. 2.5 mg/kg @ 2′): 6%
QTc B, percentage change relative to baseline ([3]; guinea pig i.v. 2.5 mg/kg @ 2′): 4%
HR, percentage change relative to baseline ([3]; guinea pig i.v. 2.5 mg/kg @ 5′): −6%
MBP, percentage change relative to baseline ([3]; guinea pig i.v. 2.5 mg/kg @ 5′): 21%
PQ, percentage change relative to baseline ([3]; guinea pig i.v. 2.5 mg/kg @ 5′): 7%
QRS, percentage change relative to baseline ([3]; guinea pig i.v. 2.5 mg/kg @ 5′): −3%
QT, percentage change relative to baseline ([3]; guinea pig i.v. 2.5 mg/kg @ 5′): 6%
QTc B, percentage change relative to baseline ([3]; guinea pig i.v. 2.5 mg/kg @ 5′): 3%
HR, percentage change relative to baseline [3, 20]: −4%
MBP, percentage change relative to baseline [3, 20]: 8%
PQ, percentage change relative to baseline [3, 20]: 8%
QRS, percentage change relative to baseline [3, 20]: 0%
QT, percentage change relative to baseline [3, 20]: 6%
QTc B, percentage change relative to baseline [3, 20]: 5%
HR, percentage change relative to baseline ([3]; guinea pig i.v. 5 mg/kg @ 2′): −3%
PQ, percentage change relative to baseline ([3]; guinea pig i.v. 5 mg/kg @ 2′): 6%
QRS, percentage change relative to baseline ([3]; guinea pig i.v. 5 mg/kg @ 2′): −2%
QT, percentage change relative to baseline ([3]; guinea pig i.v. 5 mg/kg @ 2′): 7%
QTc B, percentage change relative to baseline ([3]; guinea pig i.v. 5 mg/kg @ 2′): 5%
HR, percentage change relative to baseline ([3]; guinea pig i.v. 5 mg/kg @ 5′): −3%
PQ, percentage change relative to baseline ([3]; guinea pig i.v. 5 mg/kg @ 5′): 6%
QRS, percentage change relative to baseline ([3]; guinea pig i.v. 5 mg/kg @ 5′): 0%
QT, percentage change relative to baseline ([3]; guinea pig i.v. 5 mg/kg @ 5′): 3%
QTc B, percentage change relative to baseline ([3]; guinea pig i.v. 5 mg/kg @ 5′): 2%
effect on heart rate, duration of PQ, QRS, QT and QTcB intervals, ECG morphology ([3]; guinea pig, 0.16 up to 5 mg/kg i.v., relative to vehicle): no relevant effect
mean arterial blood pressure ([3]; guinea pig, from 2.5 mg/kg i.v. onwards): started to increase
concentration at 5 min ([4]; dose 0.16 mg/kg (increasing doses, 15-min intervals)): 398 ng/mL
concentration at 5 min ([4]; dose 0.32 mg/kg (increasing doses, 15-min intervals)): 873 ng/mL
concentration at 5 min ([4]; dose 0.64 mg/kg (increasing doses, 15-min intervals)): 1820 ng/mL
concentration at 5 min ([4]; dose 1.25 mg/kg (increasing doses, 15-min intervals)): 3330 ng/mL
Cmax ([4]; dose 2.5 mg/kg (increasing doses, 15-min intervals)): 6320 ng/mL
Cmax ([4]; dose 5 mg/kg (increasing doses, 15-min intervals; total dose 9.87 mg/kg)): 12000 ng/mL
